We go through seven compounds from article PMC9658513, “Discovery of Compounds That Selectively Repress the Amyloidogenic Processing of the Amyloid Precursor Protein: Design, Synthesis and Pharmacological Evaluation of Diphenylpyrazoles” (International Journal of Molecular Sciences, 2022).

Read-outs that look alike come from different tables or passages of the source.

Common to all, as to format: cell-based, human
One test has as its system Aβ1–40 peptide secretion. In words: Aβ1–40 secretion in cell medium by ELISA. An outline of the steps:
(§1)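 SY5Y-APP^WT cells (SH-SY5Y human neuroblastoma stably expressing human wild-type APP695) were treated with compounds for 24 h in supplemented DMEM at 37 °C. Secreted Aβ1–40 and Aβ1–42 were quantified in the collected, centrifuged conditioned medium by ELISA, in pg/mL.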
(In general: ELISA stands for enzyme-linked immunosorbent assay.)

In the next test the test system is Aβ1–42 peptide secretion. In words: Aβ1–42 secretion in cell medium by ELISA. The note with it: SY5Y-APP^WT cells, 24 h treatment, mean ± SD of at least three experiments in triplicate. A digest of the protocol:
as §1

The test system of test [1] is αCTF (APP carboxy-terminal fragment). In words: αCTF level by Western blotting in SY5Y-APP^WT cells. The conditions noted are these: for EC (20-fold increase): concentration increasing αCTF 20-fold vs untreated control, SY5Y-APP^WT cells, read-out: αCTF (C20); for C20 for CTFα and AICD: CTFα and AICD together. An outline of the steps: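 SH-SY5Y cells stably expressing human wild-type APP695 treated with compounds for 24 h at 37 °C. αCTF and AICD measured by Western blot of lysates (10 µg protein, 12% Bis-Tris gels) as band intensity; C20 is concentration raising these fragments 20-fold over control.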

Where [2] appears, read: Homo sapiens, SY5Y-APP^WT cells, 24 h treatment, mean ± SD of at least three experiments in triplicate, read-out: Aβ1–40 IC50.
Where [3] appears, read: Homo sapiens, Aβ1–40 and Aβ1–42 not distinguished, read-out: IC50 for Aβ secretion (Aβ1–x production).

As to `CN(C)CCCc1ccc(-c2nn(-c3ccc(CN(C)C)cc3)cc2CN(C)C)cc1` [Compound 24, 3-[4-[4-(Dimethylaminomethyl)-1-[4-(dimethylaminomethyl)phenyl] Pyrazol-3-yl]phenyl]-N,N-dimethyl-propan-1-amine], the IC50 with Aβ1–40 peptide secretion (setting [2]) worked out at 1500 ± 100 nM; in the test on Aβ1–42 peptide secretion (Homo sapiens), 2500 ± 200 nM. The EC (20-fold increase) in test [1] (Homo sapiens) is 1.6 µM.

For `Cc1cn(-c2cccc(CO)c2)nc1-c1ccc(CN(C)CCCN(C)C)cc1` [Compound 57, (3-{3-[4-({[3-(Dimethylamino)propyl](methyl)amino}methyl)phenyl]-4-methyl-1H-pyrazol-1-yl}phenyl)methanol], the IC50 in the test on Aβ1–40 peptide secretion (setting [2]) amounted to 2900 ± 1000 nM; in the test on Aβ1–42 peptide secretion (Homo sapiens) it was 3500 ± 800 nM. In addition, the EC (20-fold increase) in test [1] (Homo sapiens) was over 10 µM.

For the compound `Cc1cn(-c2cccc(CN3CCN(C)CC3)c2)nc1-c1cccc(CN(C)C)c1` [Compound 65, N,N-dimethyl-1-[3-[4-methyl-1-[3-[(4-methylpiperazin-1-yl)methyl]phenyl]pyrazol-3-yl]phenyl]methanamine], the IC50 was 2000 ± 700 nM in the test with Aβ1–40 peptide secretion (setting [2]) and 2100 ± 400 nM with Aβ1–42 peptide secretion (Homo sapiens). Further, in test [1] (Homo sapiens), the EC (20-fold increase) was 1.7 µM.

For the compound `Cc1cn(-c2cccc(CN(C)C)c2)nc1-c1ccc(CN(C)CCCN(C)C)cc1` [Compound 67, {[4-(1-{3-[(Dimethylamino)methyl]phenyl}-4-methyl-1H-pyrazol-3-yl)phenyl]methyl} [3-(Dimethylamino)propyl]methylamine], the IC50 with Aβ1–40 peptide secretion (setting [3]) is about 1000 nM; in the test with Aβ1–40 peptide secretion (setting [2]) it was 1300 ± 100 nM; in the test on Aβ1–42 peptide secretion (Homo sapiens), 2100 ± 500 nM. The “C20 for CTFα and AICD” value in test [1] is given as “around 1 µM”. Further, the EC (20-fold increase) in test [1] (Homo sapiens) was determined as 1.4 µM.

`Cc1cn(-c2cccc(CN(C)C)c2)nc1-c1cccc(CN(C)CCCN(C)C)c1` [Compound 70, N′-[[3-[1-[3-(Dimethylaminomethyl)phenyl]-4-methyl-pyrazol-3-yl]phenyl] Methyl]-N,N,N′-trimethyl-propane-1,3-diamine]: the IC50 in the test with Aβ1–40 peptide secretion (setting [2]) came to 1500 ± 100 nM; with Aβ1–42 peptide secretion (Homo sapiens), 2100 ± 100 nM. For the same compound, in test [1] (Homo sapiens), the EC (20-fold increase) was determined as 1.3 µM.

For `Cc1cn(-c2cccc(CN3CCN(C)CC3)c2)nc1-c1cccc(CN(C)CCCN(C)C)c1` [Compound 71, N,N,N′-Trimethyl-N′-[[3-[4-methyl-1-[3-[(4-methylpiperazin-1-yl)methyl]phenyl]pyrazol-3-yl]phenyl]methyl]propane-1,3-diamine], the IC50 in the test with Aβ1–40 peptide secretion (setting [3]) is about 1000 nM; in the test with Aβ1–40 peptide secretion (setting [2]), 1200 ± 100 nM; in the test on Aβ1–42 peptide secretion (Homo sapiens) it was 1700 ± 100 nM. Moreover, in test [1], the “C20 for CTFα and AICD” value was “around 1 µM”. Further, the EC (20-fold increase) in test [1] (Homo sapiens) was determined as 0.7 µM.

“N′-[[4-[4-[3-(Dimethylamino)propyl]-3-[4-[3-(dimethylamino)propyl]phenyl] Pyrazol-1-yl]phenyl]methyl]-N,N,N′-trimethyl-propane-1,3-diamine [Compound 33]”: the IC50 with Aβ1–40 peptide secretion (SY5Y-APP^WT cells, 24 h treatment, mean ± SD of at least three experiments in triplicate, read-out: Aβ1–40 IC50) came to 9200 ± 400 nM; with Aβ1–42 peptide secretion, 9700 ± 1200 nM. Besides, in test [1], the EC (20-fold increase) was 6.1 µM.

Broadly, the IC50 is the point on the concentration scale where inhibition reaches its midpoint.
